The target of assay [1] is T1, Protein kinase C iota type (Homo sapiens, UniProt P41743).
T1 sequence (P41743 whole entry): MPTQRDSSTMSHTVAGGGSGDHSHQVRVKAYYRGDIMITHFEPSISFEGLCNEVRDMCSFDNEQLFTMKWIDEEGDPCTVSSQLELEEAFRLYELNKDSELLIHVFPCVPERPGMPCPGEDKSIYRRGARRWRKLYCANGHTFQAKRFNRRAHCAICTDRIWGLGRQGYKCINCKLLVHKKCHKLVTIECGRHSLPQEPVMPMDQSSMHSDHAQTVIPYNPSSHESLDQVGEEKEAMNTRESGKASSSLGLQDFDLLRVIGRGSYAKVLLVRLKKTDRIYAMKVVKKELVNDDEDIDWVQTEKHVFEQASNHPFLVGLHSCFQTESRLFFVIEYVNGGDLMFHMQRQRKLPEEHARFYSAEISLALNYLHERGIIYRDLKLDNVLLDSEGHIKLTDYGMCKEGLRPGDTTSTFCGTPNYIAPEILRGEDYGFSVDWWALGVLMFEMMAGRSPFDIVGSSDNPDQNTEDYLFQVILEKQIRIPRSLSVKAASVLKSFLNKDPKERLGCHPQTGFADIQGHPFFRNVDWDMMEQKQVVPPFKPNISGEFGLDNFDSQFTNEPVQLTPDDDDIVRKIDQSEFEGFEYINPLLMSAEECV
In words: Inhibition of recombinant full-length human PKC-iota expressed in Sf21 cells using FAM-PKCs pseudopeptide derived peptide substrate and 150 uM ATP by fluorescence polarization based IMAP assay.

The target of assay [2] is T1, Protein kinase C iota type. In words: Inhibition of recombinant human PKC-iota kinase domain expressed in Sf21 cells using FAM-PKCs pseudopeptide derived peptide substrate and 25 uM ATP by fluorescence polarization based IMAP assay.

As a reminder, the IC50 is the concentration at which inhibition is half-maximal. For `N[C@H](CNc1nc(-c2ccncc2F)nc2c(C#CCO)csc12)Cc1ccccc1`, the IC50 in assay [1] was below 100 nM.

As for `CC(O)CC#Cc1csc2c(NC[C@@H](N)Cc3ccccc3)nc(-c3ccncc3)nc12` (stereo partly drawn), in assay [1], the IC50 is below 100 nM.

Consider `N[C@H](CNc1nc(-c2ccncc2)nc2c(NC(=O)C3CCCC3)csc12)Cc1ccccc1`, for which the IC50 in assay [1] was at least 10000 nM.

Consider `C[C@H](N)CNc1nc(-c2ccncc2)nc2sc3c(c12)CCCC3`, for which, in assay [2], the IC50 is below 100 nM.

In the case of `c1cc(-c2nc(N[C@@H]3CCNC3)c3scc(-c4ccn[nH]4)c3n2)ccn1`, the 50% inhibitory concentration (IC50) in assay [1] is below 100 nM.

With `Cc1cc(-c2csc3c(NC[C@@H](N)Cc4ccccc4)nc(-c4ccncc4)nc23)n[nH]1`, the 50% inhibitory concentration (IC50) in assay [1] was below 100 nM.

As to `Cc1sc2c(NC[C@@H](N)Cc3ccccc3)nc(-c3ccncc3)nc2c1-c1ccn[nH]1`, in assay [1], the IC50 is below 100 nM.

Turning to `N[C@H](CNc1nc(-c2ccncc2)nc2c(/C=C/C(=O)O)csc12)Cc1ccccc1`, in assay [1], the IC50 is at most 1000 nM.

Consider `N[C@H](CNc1nc(-c2ccncc2)nc2c(C#CC3(O)CCC3)csc12)Cc1ccccc1`, for which the concentration for half-maximal inhibition (IC50) in assay [1] was below 100 nM.

On to `N[C@H](CNc1nc(-c2ccncc2)nc2c(C#CCF)csc12)Cc1ccccc1`, for which the IC50 in assay [1] was below 100 nM.

Take `Cc1csc2nc(-c3ccncc3)nc(N3CCNCC3)c12`: the IC50 in assay [2] is below 100 nM.

Regarding `N[C@H](CNc1nc(-c2ccncc2)nc2c(Nc3ccon3)csc12)Cc1ccccc1`, the IC50 in assay [1] is below 100 nM.

Take `N[C@H](CNc1nc(-c2ccncc2)nc2c(C#CC3CC3)csc12)Cc1ccccc1`: in assay [1], the IC50 was below 100 nM.

Regarding `C/C=C\c1csc2c(NC[C@@H](N)Cc3ccccc3)nc(-c3ccncc3)nc12`, the IC50 in assay [1] was below 100 nM.

On to `N[C@H](CNc1nc(-c2ccncc2)nc2c(C#CC3(O)CCCC3)csc12)Cc1ccccc1`, for which, in assay [1], the half-inhibitory concentration (IC50) was below 100 nM.

As for `Cc1sc2c(NC[C@@H](N)Cc3ccccc3)nc(-c3ccncc3)nc2c1C#CC(C)(C)O`, the IC50 in assay [1] was below 100 nM.

For the compound `N[C@H](CNc1nc(-c2ccncc2)nc2c(C#CCCO)csc12)Cc1ccccc1`, the IC50 in assay [1] is below 100 nM.

`N#Cc1csc2c(NC[C@@H](N)Cc3ccccc3)nc(-c3ccncc3)nc12`: the IC50 in assay [1] was below 100 nM.

For `N[C@H](CNc1nc(-c2ccncc2)nc2c(Br)csc12)Cc1ccccc1`, the IC50 in assay [1] is below 100 nM.

Take `N[C@H](CNc1nc(-c2ccncc2)nc2c(/C=C/C3CC3)csc12)Cc1ccccc1`: the IC50 in assay [1] is below 100 nM.

As to `F[C@H]1NCC[C@H]1Nc1nc(-c2ccncc2)nc2ccsc12`, in assay [1], the IC50 was at least 10000 nM.

As to `CC(C)(O)C#Cc1csc2c(NC[C@@H](N)Cc3ccccc3)nc(-c3ccncc3)nc12`, in assay [1], the concentration for half-maximal inhibition (IC50) is below 100 nM.

On to `N[C@H](CNc1nc(-c2ccncc2)nc2c(Nc3ccccn3)csc12)Cc1ccccc1`, for which the IC50 in assay [1] was below 100 nM.

For the compound `N[C@H](CNc1nc(-c2ccncc2)nc2c(C#CCO)csc12)Cc1ccccc1`, in assay [1], the half-maximal inhibitory concentration (IC50) was below 100 nM.

For `C[C@@H](O)C#Cc1csc2c(NC[C@@H](N)Cc3ccccc3)nc(-c3ccncc3)nc12`, in assay [1], the IC50 is below 100 nM.

Take `C#Cc1csc2c(NC[C@@H](N)Cc3ccccc3)nc(-c3ccncc3)nc12`: in assay [1], the half-inhibitory concentration (IC50) is below 100 nM.

As to `CC(O)C#Cc1csc2c(NC[C@@H](N)Cc3ccccc3)nc(-c3ccncc3)nc12` (stereo partly drawn), the half-maximal inhibitory concentration (IC50) in assay [1] is below 100 nM.

For `Cc1sc2c(NC[C@@H](N)Cc3ccccc3)nc(-c3ccncc3)nc2c1Br`, the half-maximal inhibitory concentration (IC50) in assay [1] is below 100 nM.

As to `N[C@H](CNc1nc(-c2ccncc2)nc2c(C3CC3)csc12)Cc1ccccc1`, the IC50 in assay [1] was below 100 nM.

Take `Brc1csc2c(N[C@@H]3CCNC3)nc(-c3ccncc3)nc12`: the IC50 in assay [1] is below 100 nM.

On to `N[C@H](CNc1nc(-c2ccncc2)nc2c(-c3cn[nH]n3)csc12)Cc1ccccc1`, for which the 50% inhibitory concentration (IC50) in assay [1] was below 100 nM.

As for `N[C@H](CNc1nc(-c2ccncc2)nc2c(C#CC3(O)CC3)csc12)Cc1ccccc1`, the concentration for half-maximal inhibition (IC50) in assay [1] was below 100 nM.

Turning to `C[C@@H](F)C#Cc1csc2c(NC[C@@H](N)Cc3ccccc3)nc(-c3ccncc3)nc12`, the IC50 in assay [1] is below 100 nM.

Turning to `CC(C)S(=O)(=O)c1cccc(Nc2cc(-c3nc(N[C@@H]4CCNC4)c4sccc4n3)ccn2)c1`, the IC50 in assay [1] was at least 1000 nM.

In the case of `C[C@H](O)C#Cc1csc2c(N[C@@H]3CCNC3)nc(-c3ccncc3)nc12`, in assay [1], the 50% inhibitory concentration (IC50) is below 100 nM.

As to `N[C@H](CNc1nc(-c2ccncc2F)nc2c(-c3cc[nH]n3)csc12)Cc1ccccc1`, the IC50 in assay [1] was below 100 nM.

On to `CC(C)(C)OC(=O)N1CCc2c(sc3nc(-c4ccncc4)nc(NCCN)c23)C1`, for which the half-inhibitory concentration (IC50) in assay [1] was at least 10000 nM.

With `CC[C@H](O)C#Cc1csc2c(NC[C@@H](N)Cc3ccccc3)nc(-c3ccncc3)nc12`, the IC50 in assay [1] is below 100 nM.

Turning to `N[C@H](CNc1nc(-c2ccncc2)nc2c(C#Cc3cc[nH]n3)csc12)Cc1ccccc1`, in assay [1], the half-inhibitory concentration (IC50) was below 100 nM.

Take `N[C@H](CNc1nc(-c2ccncc2)nc2c(-c3ccn[nH]3)csc12)Cc1ccccc1`: the half-maximal inhibitory concentration (IC50) in assay [1] is below 100 nM.

Take `N[C@H](CNc1nc(-c2ccncc2)nc2c(Cl)csc12)Cc1ccccc1`: in assay [1], the half-maximal inhibitory concentration (IC50) was below 100 nM.

`CNC(=O)c1csc2c(NC[C@@H](N)Cc3ccccc3)nc(-c3ccncc3)nc12`: the concentration for half-maximal inhibition (IC50) in assay [1] was below 100 nM.

For the compound `N[C@H](CNc1nc(-c2ccncc2F)nc2c(Br)csc12)Cc1ccccc1`, the IC50 in assay [1] is below 100 nM.

With `Cc1csc2c(NC[C@@H](N)Cc3ccccc3)nc(-c3ccncc3)nc12`, the IC50 in assay [2] is below 100 nM.

As for `C=Cc1csc2c(NC[C@@H](N)Cc3ccccc3)nc(-c3ccncc3)nc12`, the IC50 in assay [1] is below 100 nM.

With `CCC[C@@H](O)[C@H](O)C#Cc1csc2c(NC[C@@H](N)Cc3ccccc3)nc(-c3ccncc3)nc12`, in assay [1], the concentration for half-maximal inhibition (IC50) was at least 1000 nM.

Take `N[C@H](CNc1nc(-c2ccncc2)nc2c(-c3ccccc3Cl)c(C(F)(F)F)sc12)Cc1ccccc1`: the concentration for half-maximal inhibition (IC50) in assay [1] was at least 10000 nM.

Take `CC#Cc1csc2c(NC[C@@H](N)Cc3ccccc3)nc(-c3ccncc3)nc12`: in assay [1], the concentration for half-maximal inhibition (IC50) was below 100 nM.

Regarding `COCC#Cc1csc2c(NC[C@@H](N)Cc3ccccc3)nc(-c3ccncc3)nc12`, the half-maximal inhibitory concentration (IC50) in assay [1] is below 100 nM.

For `Cc1ccc(CN2CCN(c3nc(-c4ccncc4)nc4sc5c(c34)CCCC5)CC2)cc1`, the IC50 in assay [2] was at least 10000 nM.

Take `N[C@H](CNc1nc(-c2ccncc2)nc2sc3c(c12)CCCC3)Cc1ccccc1O`: in assay [1], the IC50 was below 100 nM.

As to `CCc1cc(-c2csc3c(NC[C@@H](N)Cc4ccccc4)nc(-c4ccncc4)nc23)[nH]n1`, the IC50 in assay [1] is below 100 nM.

Take `C[C@H](O)C#Cc1csc2c(NC[C@@H](N)Cc3ccccc3)nc(-c3ccncc3)nc12`: the IC50 in assay [1] is below 100 nM.

(Values after ChEMBL document CHEMBL3727368, “Thienopyrimidine inhibitors of atypical protein kinase C” (2013).)
